The values that follow are results of earlier work, collected in patent US20250360221A1 (priority 2025, published 2025).

Entries after “also recorded” stand apart in the source; their conditions may differ. Structures can show the parent of a compound that is named as a salt. Where two headings read alike, the source gives them in different places.

For data set [1] the following is noted: across the human BBB; transporter type named.
The conditions of data set [2]: animals, prior art.
The conditions of data set [3]: humans.
The target of another data set is μ-opioid receptor (Homo sapiens, UniProt P35372).
μ-opioid receptor, sequence (P35372 whole entry, species assumed): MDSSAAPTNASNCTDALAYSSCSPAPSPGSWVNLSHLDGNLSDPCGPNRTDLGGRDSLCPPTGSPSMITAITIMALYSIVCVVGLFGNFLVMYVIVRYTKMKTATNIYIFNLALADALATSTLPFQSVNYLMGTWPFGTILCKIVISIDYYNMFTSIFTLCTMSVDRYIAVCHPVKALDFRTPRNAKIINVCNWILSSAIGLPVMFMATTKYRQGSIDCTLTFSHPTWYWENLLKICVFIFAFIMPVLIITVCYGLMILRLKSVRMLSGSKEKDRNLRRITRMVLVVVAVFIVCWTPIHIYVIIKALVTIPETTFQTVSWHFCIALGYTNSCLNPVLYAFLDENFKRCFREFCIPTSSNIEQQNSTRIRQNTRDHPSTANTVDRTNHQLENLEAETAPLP
In data set [4] the test system is patients with severe cancer pain.
Another data set deals with humans. The settings on record: epidural injections.
The subject of the next data set is proteolytic enzymes. The settings on record: compared to other opioid peptides.
In data set [5] the test system is patients suffering from cancer pain. The settings on record: continuous intrathecal infusion for two weeks.
The mark [6] stands for this setting: intrathecal, 3 mg, patients with severe cancer pain.

As for `CC(C)CCC[C@@H](C)[C@H]1CC[C@H]2[C@@H]3CC=C4C[C@@H](O)CC[C@]4(C)[C@H]3CC[C@]12C` [Cholesterol], the “Active Transport” value in data set [1] is “+ lipid”.

Consider `CC/C=C\C/C=C\C/C=C\C/C=C\C/C=C\C/C=C\CCC(=O)O` [DHA, docosahexaenoic acid], for which the “Active Transport” value in data set [1] is given as “+ protein”. Regarding `O=C1O[C@H]([C@@H](O)CO)C(=O)C1=O` [Dehydroascorbic acid], the “Active Transport” value in [1] is “+ GLUT”. The “crossing of the BBB” value in data set [2] is given as “crosses via GLUT1 transporter the BBB”.

With `CC(=O)Oc1ccc2c3c1O[C@H]1[C@@H](OC(C)=O)C=C[C@H]4[C@@H](C2)N(C)CC[C@@]341` [Diacetylmorphine], the “crossing of the BBB” value in data set [3] (prior art) is on record as “crosses the BBB”. `CC/C=C\C/C=C\C/C=C\CCCCCCCC(=O)O` [Linolenic acid]: the “Active Transport” value in [1] is listed as “+ lipid”.

Turning to `O=C1NC(c2ccccc2)(c2ccccc2)C(=O)N1COP(=O)(O)O` [fosphenytoin], the “crossing of the BBB” value in data set [3] (prior art) is given as “crosses the BBB”. Turning to `Cc1cc(OCC(=O)O)cc(C)c1Cc1ccc(O)c(C(C)C)c1` [sobetirome], the “crossing of the BBB” value in data set [3] (prior art) is reported as “crosses the BBB”. On to `CCOC(=O)CC(O)(CC(=O)OCC)C(=O)OCC` [triethyl citrate], for which the “crossing of the BBB” value in data set [3] (prior art) was “probably crosses the BBB”. For α endorphin, the analgesic activity entry on μ-opioid receptor is “not analgesic”.

Take β-endorphin: the “crossing of the BBB” value in data set [3] (administered intravenously) is listed as “does not cross the BBB”. Moreover, the respiratory depression entry in data set [4] (intrathecal or epidural administration to humans) is “no evidence of respiratory depression”. Further, in [4] (setting [6]), the adverse effects entry is reported as “without major adverse effects” and the duration of analgesia entry is “approximately 33.4 hours”. In addition, in the data set with humans, the duration of analgesia was 19.5 h and the side effects result is on record as “without major side effects”. Moreover, in the data set on proteolytic enzymes, the “resistance to degradation by proteolytic enzymes / peptidases” value was “resistant to degradation by proteolytic enzymes; also recorded: quite stable and resistant to many peptidases”. Further, the respiratory depression result in the data set on animals (intracerebroventricular administration) was “reports of respiratory depression”. Moreover, the tolerance entry in the data set on animals (intracerebroventricular injection) is recorded as “tolerance develops”. In data set [5], the analgesia entry was “profound analgesia” and the “tolerance or respiratory depression” value is reported as “did not demonstrate tolerance; also recorded: no evidence of tolerance or respiratory depression”. Take “β-endorphin (1-27) (YGGFMTSEKSQTPLVTLFKNAIIKNAY; Beta-endorphin; UniProt P01189 237-263, looked up, fragment) [shorter fragment of β-endorphin]”: the “potency compared to β-endorphin (1-31)” value with μ-opioid receptor is listed as “less potent”. In the case of “γ endorphin: γ endorphin, stated not analgesic (YGGFMTSEKSQTPLVTL; Beta-endorphin gamma-endorphin; UniProt P01189 237-253, looked up, fragment)”, the analgesic activity result with μ-opioid receptor is “not analgesic”.
